From PMC6979384, “Characterization of the plant homeodomain (PHD) reader family for their histone tail interactions” (Epigenetics & Chromatin, 2020)
Several values for one entry are separate records, joined by “and”; a condition that tells them apart may be missing. Identical values can stand only once.

Legend:
Assay in all cases: Histone peptide microarray
Assay type in all cases: binding, human
AIRE (PP) = details: AIRE (PP), GST-tagged; arrays performed twice, n of 4
How it was run: (§1)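 GST-tagged PHD readers, 0.5 μM, probed on a microarray of 293 synthetic histone peptides carrying single or combinatorial PTMs (optimized Petell protocol). Signals are averaged over 4 replicates and expressed as relative binding.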

BAZ2B = details: BAZ2B, GST-tagged; arrays performed twice, n of 4
How it was run: as §1

BPTF (PB) = details: BPTF (PB), GST-tagged; arrays performed twice, n of 4
How it was run: as §1

CHD4 (PPCC) = details: CHD4 (PPCC), GST-tagged; arrays performed twice, n of 4
How it was run: as §1

CHD5 (PCC) = details: CHD5 (PCC), GST-tagged; arrays performed twice, n of 4
How it was run: as §1

CHD5 (PPCC) = details: CHD5 (PPCC), GST-tagged; arrays performed twice, n of 4
How it was run: as §1

DIDO1 = details: DIDO1, GST-tagged; arrays performed twice, n of 4
How it was run: as §1

DPF2 (PPC2W2) = details: DPF2 (PPC2W2), GST-tagged; arrays performed twice, n of 4
How it was run: as §1

ING1 = details: ING1, GST-tagged; arrays performed twice, n of 4
How it was run: as §1

ING2 = details: ING2, GST-tagged; arrays performed twice, n of 4
How it was run: as §1

ING3 = details: ING3, GST-tagged; arrays performed twice, n of 4
How it was run: as §1

ING4 = details: ING4, GST-tagged; arrays performed twice, n of 4
How it was run: as §1

ING5 = details: ING5, GST-tagged; arrays performed twice, n of 4
How it was run: as §1

KDM4C (TTP) = details: KDM4C (TTP), GST-tagged; arrays performed twice, n of 4
How it was run: as §1

KDM5A (1) = details: KDM5A (1), GST-tagged; arrays performed twice, n of 4
How it was run: as §1

KDM5A (3) = details: KDM5A (3), GST-tagged; arrays performed twice, n of 4
How it was run: as §1

KDM5B (1) = details: KDM5B (1), GST-tagged; arrays performed twice, n of 4
How it was run: as §1

KDM5B (3) = details: KDM5B (3), GST-tagged; arrays performed twice, n of 4
How it was run: as §1

KDM7A = details: KDM7A, GST-tagged; arrays performed twice, n of 4
How it was run: as §1

MLL5 = details: MLL5, GST-tagged; arrays performed twice, n of 4
How it was run: as §1

MORC3 (CW) = details: MORC3 (CW), GST-tagged; arrays performed twice, n of 4
How it was run: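 Binding read as mean relative signal from 4 replicates; microarray held 293 synthetic histone peptides with single or combinatorial PTMs. Each GST-tagged PHD reader was applied at 0.5 μM using the optimized Petell protocol.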

PHF13 = details: PHF13, GST-tagged; arrays performed twice, n of 4
How it was run: as §1

PHF21A = details: PHF21A, GST-tagged; arrays performed twice, n of 4
How it was run: as §1

PHF23 = details: PHF23, GST-tagged; arrays performed twice, n of 4
How it was run: as §1

PHF2 = details: PHF2, GST-tagged; arrays performed twice, n of 4
How it was run: as §1

PHF8 = details: PHF8, GST-tagged; arrays performed twice, n of 4
How it was run: as §1

PHRF1 (RP) = details: PHRF1 (RP), GST-tagged; arrays performed twice, n of 4
How it was run: as §1

RAG2 = details: RAG2, GST-tagged; arrays performed twice, n of 4
How it was run: as §1

SP140L = details: SP140L, GST-tagged; arrays performed twice, n of 4
How it was run: as §1

TAF3 = details: TAF3, GST-tagged; arrays performed twice, n of 4
How it was run: as §1

TRIM66 (PB) = details: TRIM66 (PB), GST-tagged; arrays performed twice, n of 4
How it was run: as §1

Substance	Array Heatmap value (peptide array binding signal) (AIRE (PP))	Array Heatmap value (peptide array binding signal) (BAZ2B)	Array Heatmap value (peptide array binding signal) (BPTF (PB))	Array Heatmap value (peptide array binding signal) (CHD4 (PPCC))	Array Heatmap value (peptide array binding signal) (CHD5 (PCC))	Array Heatmap value (peptide array binding signal) (CHD5 (PPCC))	Array Heatmap value (peptide array binding signal) (DIDO1)	Array Heatmap value (peptide array binding signal) (DPF2 (PPC2W2))	Array Heatmap value (peptide array binding signal) (ING1)	Array Heatmap value (peptide array binding signal) (ING2)	Array Heatmap value (peptide array binding signal) (ING3)	Array Heatmap value (peptide array binding signal) (ING4)	Array Heatmap value (peptide array binding signal) (ING5)	Array Heatmap value (peptide array binding signal) (KDM4C (TTP))	Array Heatmap value (peptide array binding signal) (KDM5A (1))	Array Heatmap value (peptide array binding signal) (KDM5A (3))	Array Heatmap value (peptide array binding signal) (KDM5B (1))	Array Heatmap value (peptide array binding signal) (KDM5B (3))	Array Heatmap value (peptide array binding signal) (KDM7A)	Array Heatmap value (peptide array binding signal) (MLL5)	further results
H3K27acK36me1 (21-44): H3 21-44	0.4899	0.5322	0.4151	0.6736	0.8019	0.6612	0.819	0.7332	0.6463	0.6555	0.5657	0.5489	0.4437	0.5731	0.5728	0.5161	0.7243	0.4928	0.3972	0.6075	Array Heatmap value (peptide array binding signal) (MORC3 (CW)): 0.41; Array Heatmap value (peptide array binding signal) (PHF13): 0.7148; Array Heatmap value (peptide array binding signal) (PHF21A): 0.5223; Array Heatmap value (peptide array binding signal) (PHF23): 0.594; Array Heatmap value (peptide array binding signal) (PHF2): 0.6877; Array Heatmap value (peptide array binding signal) (PHF8): 0.4123; Array Heatmap value (peptide array binding signal) (PHRF1 (RP)): 0.5526; Array Heatmap value (peptide array binding signal) (RAG2): 0.2901; Array Heatmap value (peptide array binding signal) (SP140L): 0.402; Array Heatmap value (peptide array binding signal) (TAF3): 0.3058; Array Heatmap value (peptide array binding signal) (TRIM66 (PB)): 0.6284
H3K27acK36me2 (21-44): H3 21-44	0.4428 and 0.4192	0.4609 and 0.4258	0.3426 and 0.3388	0.5418 and 0.5498	0.7409 and 0.7549	0.5507 and 0.5149	0.6948 and 0.6464	0.7163 and 0.602	0.5489 and 0.5171	0.6056 and 0.5874	0.4824 and 0.4746	0.4678 and 0.4306	0.3615 and 0.3253	0.4885 and 0.4721	0.4783 and 0.4109	0.4461 and 0.4626	0.6449 and 0.6364	0.4476 and 0.4512	0.3413 and 0.3447	0.5387 and 0.5129	Array Heatmap value (peptide array binding signal) (MORC3 (CW)): 0.3508 and 0.3632; Array Heatmap value (peptide array binding signal) (PHF13): 0.6217 and 0.5883; Array Heatmap value (peptide array binding signal) (PHF21A): 0.4478 and 0.464; Array Heatmap value (peptide array binding signal) (PHF23): 0.5178 and 0.5191; Array Heatmap value (peptide array binding signal) (PHF2): 0.5335 and 0.4712; Array Heatmap value (peptide array binding signal) (PHF8): 0.3474 and 0.3417; Array Heatmap value (peptide array binding signal) (PHRF1 (RP)): 0.4704 and 0.4395; Array Heatmap value (peptide array binding signal) (RAG2): 0.238 and 0.2335; Array Heatmap value (peptide array binding signal) (SP140L): 0.3702 and 0.357; Array Heatmap value (peptide array binding signal) (TAF3): 0.2617 and 0.2453; Array Heatmap value (peptide array binding signal) (TRIM66 (PB)): 0.5511 and 0.5888
H3K36ac (21-44): H3 21-44	0.4538	0.4745	0.3596	0.5911	0.8362	0.5645	0.7412	0.7036	0.5601	0.6078	0.4959	0.4623	0.3615	0.4961	0.4894	0.4289	0.6899	0.4828	0.3751	0.5602	Array Heatmap value (peptide array binding signal) (MORC3 (CW)): 0.3556; Array Heatmap value (peptide array binding signal) (PHF13): 0.6346; Array Heatmap value (peptide array binding signal) (PHF21A): 0.4731; Array Heatmap value (peptide array binding signal) (PHF23): 0.5388; Array Heatmap value (peptide array binding signal) (PHF2): 0.5459; Array Heatmap value (peptide array binding signal) (PHF8): 0.3497; Array Heatmap value (peptide array binding signal) (PHRF1 (RP)): 0.4519; Array Heatmap value (peptide array binding signal) (RAG2): 0.2439; Array Heatmap value (peptide array binding signal) (SP140L): 0.3554; Array Heatmap value (peptide array binding signal) (TAF3): 0.2714; Array Heatmap value (peptide array binding signal) (TRIM66 (PB)): 0.6317
